Experimental findings from PMC7247319, “The mitochondria-targeted peptide SS-31 binds lipid bilayers and modulates surface electrostatics as a key component of its mechanism of action” (The Journal of Biological Chemistry, 2020) are described below.

Where a SMILES comes first, the peptide text is derived from it. [ ]: non-standard residue; d: D form. Dmt = Cc1cc(O)cc(C)c1C[C@H](N)C(=O)O

In assay [1] the test system is LUVs containing 20 mol % MLCL in a POPC background. The assay is described as follows: SS-31 binding isotherms by endogenous 2′,6′-Dmt fluorescence (peptide and lipid titrations). Conditions: 20% MLCL/POPC LUVs, 20 mM HEPES-KOH pH 7.5, Scatchard and Langmuir fits of fluorescence isotherms. The text has this: (§1) The interaction of basic amphipathic peptides with negatively charged membranes depends on the electric field originating from the bilayer surface as well as specific electrostatic and hydrophobic interactions between the peptide and lipids (Fig. S2). The first objective of this study was to quantitatively evaluate the binding of SS-31 to model membranes with specific lipid composition. For spectroscopic analysis of SS-31 binding, we made use of the endogenous spectral properties of the 2′,6′-dimethyltyrosine (2′,6′-Dmt) side chain at the second position in the peptide. Our initial spectral characterization of SS-31 confirmed the feasibility of using endogenous peptide fluorescence to quantify peptide-membrane interactions (supporting Results A and B and Figs. S3 and S4). We therefore proceeded to measure the binding of SS-31 to large unilamellar vesicles (LUVs) containing anionic lipids in a host background of the zwitterionic lipid 1-palmitoyl-2-oleoyl-sn-glycero-3-phosphocholine (POPC, 16:0/18:1 PC). The anionic lipids included 1′,3′-bis[1,2-dioleoyl-sn-glycero-3-phospho]-glycerol (tetraoleoylcardiolipin (TOCL), all acyl chains 18:1), monolysocardiolipin (MLCL, all acyl chains 18:1), or 1-palmitoyl-2-oleoyl-sn-glycero-3-phosphoglycerol (POPG, 16:0/18:1 PG). Binding measurements were performed using two complementary approaches: (i) titration of fixed concentrations of LUVs with peptide and (ii) titration of fixed concentrations of peptide with LUVs (supporting Results C and Fig. S5). […]
(§2) Figure 2. […] A–C, fluorescence-based measurements. […] Statistical differences within each data set were determined relative to TOCL-containing membranes: •, p < 0.05; ••, p < 0.01.
(§3) To obtain equilibrium binding parameters n (the number of lipid molecules per peptide bound) and KD (the dissociation constant), we analyzed binding isotherm data by Scatchard analysis (Fig. 2C) and by fits of the data to Langmuir adsorption models (Equations S2 and S3 for peptide and lipid titrations, respectively). […]

The subject of assay [2] is LUVs containing 20 mol % TOCL in a POPC background. Described as above. The note with it: 20% TOCL/POPC LUVs, 20 mM HEPES-KOH pH 7.5, Scatchard and Langmuir fits of fluorescence isotherms.
Description: as §1, §2, §3

For assay [3], the system named is LUVs containing 20 mol % POPG in a POPC background. Described as above. The note with it: 20% POPG/POPC LUVs, 20 mM HEPES-KOH pH 7.5, Scatchard and Langmuir fits of fluorescence isotherms.
Description: as §1, §2, §3

The test system of assay [4] is LUVs with POPC only. The assay is described as follows: SS-31 binding isotherms by endogenous 2′,6′-Dmt fluorescence. Conditions: even at the highest lipid concentrations used.
Description: as §1, with “PC).” for “PC). The anionic lipids included 1′,3′-bis[1,2-dioleoyl-sn-glycero-3-phospho]-glycerol (tetraoleoylcardiolipin (TOCL), all acyl chains 18:1), monolysocardiolipin (MLCL, all acyl chains 18:1), or 1-palmitoyl-2-oleoyl-sn-glycero-3-phosphoglycerol (POPG, 16:0/18:1 PG). Binding measurements were performed using two complementary approaches: (i) titration of fixed concentrations of LUVs with peptide and (ii) titration of fixed concentrations of peptide with LUVs (supporting Results C and Fig. S5).”
Figure 2. […] A–C, fluorescence-based measurements. […] Statistical differences within each data set were determined relative to TOCL-containing membranes: •, p < 0.05; ••, p < 0.01. […]

Regarding `Cc1cc(O)cc(C)c1C[C@H](NC(=O)[C@H](N)CCCNC(=N)N)C(=O)N[C@@H](CCCCN)C(=O)N[C@@H](Cc1ccccc1)C(N)=O` [SS-31, D-Arg-2′6′-dimethyl-Tyr-Lys-Phe-NH2] (H-[dR][Dmt]KF-NH2), the “n (number of lipid molecules per peptide bound), average lipid/peptide stoichiometry” value in assay [1] came out at 7.4; in assay [2] it was 6.9; in assay [3], 15.4. For the same compound, the “binding in the absence of anionic lipid” value in assay [4] is “negligible”.
